Experimental data: patent US6355799B1, “Substituted benzene compounds, process for their preparation, and herbicidal and defoliant compositions containing them” (ISK Americas Incorporated, priority 1997, dated 2002)

What was measured:
Assay type in all cases: in vivo
[1] = system: redroot pigweed (Amaranthus retroflexus, AMARE); assay: Pre-emerge test, greenhouse herbicide activity screening; details: pre-emerge, rated 14 days after application, 0 = no damage, 100 = complete death
Procedure, shortened: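 Compounds in acetone were track-sprayed at 187 l/ha, 15–1000 g ai/ha, onto sandy loam pots. Pre-emerge seeds were sown one day before spraying, with surface watering afterwards. Post-emerge plants were at the 2–3 leaf stage and sprayed with 0.25% v/v non-ionic surfactant. Injury was rated 0–100 at 14 days.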

[2] = system: barnyardgrass (Echinochloa crus-galli, ECHCG); assay: as above; details: pre-emerge, rated 14 days after application, 0 = no damage, 100 = complete death
Procedure, shortened: (§1)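 Fourteen days after spraying, crop and weed injury was graded visually from 0, no effect, to 100, every plant dead. Test substances were dissolved in acetone and applied at 15–1000 g ai/ha with a flat-fan nozzle. Application was either pre-emergence, one day after sowing, or post-emergence at the 2–3 leaf stage.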

[3] = system: common ragweed (Ambrosia artemisizfolia L., AMBEL); assay: as above; details: pre-emerge, rated 14 days after application, 0 = no damage, 100 = complete death
Procedure, shortened: as §1

[4] = system: green foxtail (Setaria viridis, SETVI); assay: as above; details: pre-emerge, rated 14 days after application, 0 = no damage, 100 = complete death
Procedure, shortened: as §1

[5] = system: ivyleaf morningglory (Ipomoea hederacea, IPOHE); assay: as above; details: pre-emerge, rated 14 days after application, 0 = no damage, 100 = complete death
Procedure, shortened: as §1

[6] = system: johnsongrass (Sorghum halepense, SORHA); assay: as above; details: pre-emerge, rated 14 days after application, 0 = no damage, 100 = complete death
Procedure, shortened: as §1

[7] = system: lambsquarters (Chenopodium album, CHEAL); assay: as above; details: pre-emerge, rated 14 days after application, 0 = no damage, 100 = complete death
Procedure, shortened: as §1

[8] = system: large crabgrass (Digitaria sanguinalis, DIGSA); assay: as above; details: pre-emerge, rated 14 days after application, 0 = no damage, 100 = complete death
Procedure, shortened: as §1

[9] = system: sicklepod (Cassia obtusifolia, CASOB); assay: as above; details: pre-emerge, rated 14 days after application, 0 = no damage, 100 = complete death
Procedure, shortened: as §1

[10] = system: velvetleaf (Abutilon theophrasti, ABUTH); assay: as above; details: pre-emerge, rated 14 days after application, 0 = no damage, 100 = complete death
Procedure, shortened: as §1

[11] = system: field corn (Zea mays L., var. Dekalb 535, CORN); assay: Pre-emerge test, crop safety; details: pre-emerge, rated 14 days after application, 0 = no damage, 100 = complete death
Procedure, shortened: (§2)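 Rating: 0–100 visual injury, 14 DAA. Application: acetone, 187 l/ha, 15–1000 g ai/ha, flat-fan track sprayer with nozzle 40–45 cm above soil or canopy. Post-emerge runs used 0.25% v/v surfactant on 2–3 leaf plants.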

[12] = system: upland rice (Oryza sp., var. Tebonnet, RICE); assay: Pre-emerge test, crop safety; details: pre-emerge, rated 14 days after application, 0 = no damage, 100 = complete death
Procedure, shortened: as §2

[13] = system: barnyardgrass (Echinochloa crus-galli, ECHCG); assay: Post-emerge test, greenhouse herbicide activity screening; details: phytotoxicity rating 0-100 (0 no damage, 100 complete death), 14 days after application
Procedure, shortened: as §1

[14] = system: common ragweed (Ambrosia artemisizfolia L., AMBEL); assay: as above; details: phytotoxicity rating 0-100 (0 no damage, 100 complete death), 14 days after application
Procedure, shortened: as §1

[15] = system: green foxtail (Setaria viridis, SETVI); assay: as above; details: phytotoxicity rating 0-100 (0 no damage, 100 complete death), 14 days after application
Procedure, shortened: as §1

[16] = system: ivyleaf morningglory (Ipomoea hederacea, IPOHE); assay: as above; details: phytotoxicity rating 0-100 (0 no damage, 100 complete death), 14 days after application
Procedure, shortened: as §1

[17] = system: johnsongrass (Sorghum halepense, SORHA); assay: as above; details: phytotoxicity rating 0-100 (0 no damage, 100 complete death), 14 days after application
Procedure, shortened: as §1

[18] = system: lambsquarters (Chenopodium album, CHEAL); assay: as above; details: phytotoxicity rating 0-100 (0 no damage, 100 complete death), 14 days after application
Procedure, shortened: as §1

[19] = system: large crabgrass (Digitaria sanguinalis, DIGSA); assay: as above; details: phytotoxicity rating 0-100 (0 no damage, 100 complete death), 14 days after application
Procedure, shortened: as §1

[20] = system: redroot pigweed (Amaranthus retroflexus, AMARE); assay: as above; details: phytotoxicity rating 0-100 (0 no damage, 100 complete death), 14 days after application
Procedure, shortened: as §1

[21] = system: sicklepod (Cassia obtusifolia, CASOB); assay: as above; details: phytotoxicity rating 0-100 (0 no damage, 100 complete death), 14 days after application
Procedure, shortened: as §1

[22] = system: velvetleaf (Abutilon theophrasti, ABUTH); assay: as above; details: phytotoxicity rating 0-100 (0 no damage, 100 complete death), 14 days after application
Procedure, shortened: as §1

[23] = system: field corn (Zea mays L., var. Dekalb 535, CORN); assay: Post-emerge test, crop safety; details: phytotoxicity rating 0-100 (0 no damage, 100 complete death), 14 days after application
Procedure, shortened: as §1

[24] = system: upland rice (Oryza sp., var. Tebonnet, RICE); assay: Post-emerge test, crop safety; details: phytotoxicity rating 0-100 (0 no damage, 100 complete death), 14 days after application
Procedure, shortened: as §1

COC(=O)C(=O)Nc1c(OC)c(Cl)cc(F)c1-n1c(=O)cc(C(F)(F)F)n(C)c1=O [2-15]
Pre-emerge Herbicidal Activity AMARE (phytotoxicity rating, scale 0-100) ([1]; 63 g ai/ha): 0
Pre-emerge Herbicidal Activity AMARE (phytotoxicity rating, scale 0-100) ([1]; 250 g ai/ha): 80
Pre-emerge Herbicidal Activity ECHCG (phytotoxicity rating, scale 0-100) ([2]; 63 g ai/ha): 0
Pre-emerge Herbicidal Activity ECHCG (phytotoxicity rating, scale 0-100) ([2]; 250 g ai/ha): 0
Pre-emerge Herbicidal Activity AMBEL (phytotoxicity rating, scale 0-100) ([3]; 63 g ai/ha): 0
Pre-emerge Herbicidal Activity AMBEL (phytotoxicity rating, scale 0-100) ([3]; 250 g ai/ha): 0
Pre-emerge Herbicidal Activity SETVI (phytotoxicity rating, scale 0-100) ([4]; 63 g ai/ha): 0
Pre-emerge Herbicidal Activity SETVI (phytotoxicity rating, scale 0-100) ([4]; 250 g ai/ha): 0
Pre-emerge Herbicidal Activity IPOHE (phytotoxicity rating, scale 0-100) ([5]; 63 g ai/ha): 20
Pre-emerge Herbicidal Activity IPOHE (phytotoxicity rating, scale 0-100) ([5]; 250 g ai/ha): 30
Pre-emerge Herbicidal Activity SORHA (phytotoxicity rating, scale 0-100) ([6]; 63 g ai/ha): 0
Pre-emerge Herbicidal Activity SORHA (phytotoxicity rating, scale 0-100) ([6]; 250 g ai/ha): 0
Pre-emerge Herbicidal Activity CHEAL (phytotoxicity rating, scale 0-100) ([7]; 63 g ai/ha): 60
Pre-emerge Herbicidal Activity CHEAL (phytotoxicity rating, scale 0-100) ([7]; 250 g ai/ha): 40
Pre-emerge Herbicidal Activity DIGSA (phytotoxicity rating, scale 0-100) ([8]; 63 g ai/ha): 0
Pre-emerge Herbicidal Activity DIGSA (phytotoxicity rating, scale 0-100) ([8]; 250 g ai/ha): 0
Pre-emerge Herbicidal Activity CASOB (phytotoxicity rating, scale 0-100) ([9]; 63 g ai/ha): 0
Pre-emerge Herbicidal Activity CASOB (phytotoxicity rating, scale 0-100) ([9]; 250 g ai/ha): 0
Pre-emerge Herbicidal Activity ABUTH (phytotoxicity rating, scale 0-100) ([10]; 63 g ai/ha): 20
Pre-emerge Herbicidal Activity ABUTH (phytotoxicity rating, scale 0-100) ([10]; 250 g ai/ha): 90
Pre-emerge crop damage CORN (phytotoxicity rating, scale 0-100) ([11]; 63 g ai/ha): 0
Pre-emerge crop damage CORN (phytotoxicity rating, scale 0-100) ([11]; 250 g ai/ha): 0
Pre-emerge crop damage RICE (phytotoxicity rating, scale 0-100) ([12]; 63 g ai/ha): 10
Pre-emerge crop damage RICE (phytotoxicity rating, scale 0-100) ([12]; 250 g ai/ha): 0
Post-emerge Herbicidal Activity ECHCG ([13]; 63 g ai/ha): 0
Post-emerge Herbicidal Activity ECHCG ([13]; 250 g ai/ha): 0
Post-emerge Herbicidal Activity AMBEL ([14]; 63 g ai/ha): 10
Post-emerge Herbicidal Activity AMBEL ([14]; 250 g ai/ha): 40
Post-emerge Herbicidal Activity SETVI ([15]; 63 g ai/ha): 0
Post-emerge Herbicidal Activity SETVI ([15]; 250 g ai/ha): 0
Post-emerge Herbicidal Activity IPOHE ([16]; 63 g ai/ha): 40
Post-emerge Herbicidal Activity IPOHE ([16]; 250 g ai/ha): 90
Post-emerge Herbicidal Activity SORHA ([17]; 63 g ai/ha): 0
Post-emerge Herbicidal Activity SORHA ([17]; 250 g ai/ha): 0
Post-emerge Herbicidal Activity CHEAL ([18]; 63 g ai/ha): 40
Post-emerge Herbicidal Activity CHEAL ([18]; 250 g ai/ha): 60
Post-emerge Herbicidal Activity DIGSA ([19]; 63 g ai/ha): 0
Post-emerge Herbicidal Activity DIGSA ([19]; 250 g ai/ha): 0
Post-emerge Herbicidal Activity AMARE ([20]; 63 g ai/ha): 0
Post-emerge Herbicidal Activity AMARE ([20]; 250 g ai/ha): 20
Post-emerge Herbicidal Activity CASOB ([21]; 63 g ai/ha): 10
Post-emerge Herbicidal Activity CASOB ([21]; 250 g ai/ha): 10
Post-emerge Herbicidal Activity ABUTH ([22]; 63 g ai/ha): 70
Post-emerge Herbicidal Activity ABUTH ([22]; 250 g ai/ha): 90
Post-emerge Herbicidal Activity CORN (crop damage) ([23]; 63 g ai/ha): 0
Post-emerge Herbicidal Activity CORN (crop damage) ([23]; 250 g ai/ha): 0
Post-emerge Herbicidal Activity RICE (crop damage) ([24]; 63 g ai/ha): 0
Post-emerge Herbicidal Activity RICE (crop damage) ([24]; 250 g ai/ha): 0
